Test results reported in patent publication US12617794B2, “GABAA positive allosteric modulator compounds, methods of making, and uses thereof” (NEUROCYCLE THERAPEUTICS, INC., priority 2019, dated 2026).
Like-named read-outs stand apart in the source and are kept apart here.

How the values were obtained:
Assay type in all cases: physicochemical
Competitive slurry study = assay: Competitive slurry study
Source text: Determining which polymorphic form is more thermodynamically stable may be experimentally determined by conventional methods known in the art. For example, a competitive slurry experiment in which a 1:1 mixture of polymorphic forms is stirred for a period of time in a solvent in which both polymorphic forms are partly soluble may be conducted. It is accepted by those skilled in the art that if the 1:1 mixture converts entirely to one polymorphic form, that form that results is more thermodynamically stable of the two, while the other form is metastable.
TPA023B Phosphate of mixed forms was added into specific solvents and stirred at RT or 50° C. for 1 day. The suspensions were filtered and characterized by XRPD.

[1] = Slurry of Phosphate Form A in acetone with different water content (Example 68); settings: for Result (solid form after slurry): slurry in acetone at RT
Source text: The suspension was stirred at RT for hours. The solid was isolated and analyzed. […] Phosphate dissociated when water content is >, 4% wt. in acetone at RT.

[2] = Preliminary (estimated) solubility study of TPA023B Phosphate Form A (30.3, Example 34); settings: estimated by visual observation
Procedure: Then the mixture was agitated in a shaker block for at least 30 mins. Additional solvent was added in a stepwise manner until all solids were dissolved. The dissolution was checked by visual observation and the amount of solvent required to dissolve all the solids was recorded.

[3] = One week accelerated stability testing (Example 3)
Procedure: The stability of Phosphate Polymorphic Form A and Free Base Polymorphic Form A were evaluated under accelerated conditions.

[4] = Solubility in aqueous buffers, SGF, FaSSIF and FeSSIF (Example 15); settings: for solubility thermodynamic: 20 °C, thermodynamic from solid, read-out: Measured Conc.; for solubility thermodynamic / Measured Conc. (μg/mL): ~20-25° C., ~24 hours
Procedure: About 2 mg of test article was added to a 1.5 mL vials which contained ˜1.0 mL of one medium listed in Table 7 and Table 8, which was then sealed. The mixtures were stirred at ˜20-25° C. for ˜24 hours. After that, the mixture was filtered by 0.45 μm filter membrane and then the supernatant was analyzed by HPLC.

[5] = Polymer induced crystallization (Example 67); settings: evaporative crystallization at RT, ~10% polymer
Procedure: Then ˜10% of polymer was added into clear solution. The mixture was evaporated to dryness at RT. The solid was isolated and characterized.
No new phosphate form was obtained.

CC(C)(O)c1cnn2c(-c3ccc(F)c(-c4c(F)cccc4C#N)c3)cnc2n1 [Phosphate Polymorphic Form A, 2′,6-difluoro-5′-[3-(1-hydroxy-1-methylethyl)-imidazo[1,2-b][1,2,4]triazin-7-yl]biphenyl-2-carbonitrile]
thermodynamic stability among phosphate forms (Competitive slurry study): most thermodynamically stable form | Result (solid form after slurry) ([1]; water content 3 wt. %): Phosphate Form A | Result (solid form after slurry) ([1]; water content 3.5 wt. %): Phosphate Form A | Result (solid form after slurry) ([1]; water content 4 wt. %): Phosphate Form A + Free Base Form E | Result (solid form after slurry) ([1]; water content 4.5 wt. %): Phosphate Form A + Free Base Form E | Result (solid form after slurry) ([1]; water content 5 wt. %): Phosphate Form A + Free Base Form E | Result (solid form after slurry) ([1]; water content 5.5 wt. %): Phosphate Form A + Free Base Form E | Result (solid form after slurry) ([1]; water content 6 wt. %): Phosphate Form A + Free Base Form E | solid form after slurry in acetone ([1]; water content <3.5% wt., RT): remained unchanged | solid form after slurry in acetone ([1]; water content >, 4% wt. in acetone at RT): dissociated | solubility ([2]; 1,4-Dioxane, organic solvent or mixture, thermodynamic from solid, 1,4-Dioxane, read-out: Solubility): 25000 µg/mL | solubility ([2]; 2-Me THF, organic solvent or mixture, thermodynamic from solid, 2-Me THF, read-out: Solubility): 20000 µg/mL | solubility ([2]; ACN, organic solvent or mixture, thermodynamic from solid, ACN, read-out: Solubility): < 2000 µg/mL | solubility ([2]; DCM, organic solvent or mixture, thermodynamic from solid, DCM, read-out: Solubility): 2000 µg/mL | solubility ([2]; DMF, organic solvent or mixture, thermodynamic from solid, DMF, read-out: Solubility): 96000 µg/mL | solubility ([2]; DMSO, organic solvent or mixture, thermodynamic from solid, DMSO, read-out: Solubility): 93000 µg/mL | solubility ([2]; EA, organic solvent or mixture, thermodynamic from solid, EA, read-out: Solubility): < 2000 µg/mL | solubility ([2]; EA, listed as TPA023B Phosphate Form A): <2000 µg/mL | solubility ([2]; Heptane, listed as TPA023B Phosphate Form A): <1000 µg/mL | solubility ([2]; IPA, organic solvent or mixture, thermodynamic from solid, IPA, read-out: Solubility): 2500 µg/mL | solubility ([2]; MTBE, organic solvent or mixture, thermodynamic from solid, MTBE, read-out: Solubility): < 2000 µg/mL | solubility ([2]; MTBE, listed as TPA023B Phosphate Form A): <1500 µg/mL | solubility ([2]; THF, organic solvent or mixture, thermodynamic from solid, THF, read-out: Solubility): 28000 µg/mL | solubility ([2]; Water, listed as TPA023B Phosphate Form A): <2000 µg/mL | solubility ([2]; acetone, organic solvent or mixture, thermodynamic from solid, Acetone, read-out: Solubility): 7000 µg/mL | solubility ([2]; ethanol, organic solvent or mixture, thermodynamic from solid, Ethanol, read-out: Solubility): 3000 µg/mL | solubility ([2]; heptane, organic solvent or mixture, thermodynamic from solid, Heptane, read-out: Solubility): < 2000 µg/mL | solubility ([2]; methanol, organic solvent or mixture, thermodynamic from solid, Methanol, read-out: Solubility): 9500 µg/mL | solubility ([2]; water, thermodynamic from solid, Water, read-out: Solubility): < 2000 µg/mL | Assay (%) ([3]; 40° C./75% RH (open), 1 week): 97.12% | Purity (%) ([3]; 40° C./75% RH (open), 1 week): 99.02% | Assay (%) ([3]; 80° C. (open), 1 week): 95.99% | Purity (%) ([3]; 80° C. (open), 1 week): 98.94% | Purity (%) ([3]; Initial): 98.91% | Assay (%) ([3]; Initial, assay criterion 95%-105%): 104.60% | Assay (%) ([3]; Light, ~50 h): 95.25% | Purity (%) ([3]; Light, ~50 h): 97.55% | solubility thermodynamic ([4]; FaSSIF, fassif, FaSSIF): 7.14 µg/mL | solubility thermodynamic ([4]; FeSSIF, fessif, FeSSIF): 50.7 µg/mL | solubility thermodynamic ([4]; SGF, simulated gastric fluid, SGF): 3.85 µg/mL | solubility thermodynamic ([4]; citrate buffer, pH 3, aqueous buffer, pH 3.0 citrate buffer (100 mM), LOQ: 0.1 μg/mL): 0.16 µg/mL | solubility compared with Free Base Polymorphic Form A ([4]; in SGF, FaSSIF and FeSSIF): higher solubility | Measured Conc. (μg/mL) ([4]; pH 4.5 citrate buffer (100 mM), LOQ: 0.1 μg/mL): <LOQ | Measured Conc. (μg/mL) ([4]; pH 7.4 PBS (50 mM), LOQ: 0.1 μg/mL): <LOQ | Measured Conc. (μg/mL) ([4]; pH 9.0 USP Buffer (50 mM), LOQ: 0.1 μg/mL): <LOQ | Result (solid form obtained) ([5]; solvent MEK, polymer EC (Ethyl cellulose)): Phosphate Form A | Result (solid form obtained) ([5]; solvent MEK, polymer PAA Poly(acrylic acid)): Phosphate Form A | Result (solid form obtained) ([5]; solvent MEK, polymer PEG4000, listed as Phosphate Form A): Free Base Form F | Result (solid form obtained) ([5]; solvent MEK, polymer PVP-K30 (Polyvinyl pyrrolidone), listed as Phosphate Form A): Free Base Form F | Result (solid form obtained) ([5]; solvent THF, polymer EC): Phosphate Form A | Result (solid form obtained) ([5]; solvent THF, polymer PAA Poly): Phosphate Form A | Result (solid form obtained) ([5]; solvent THF, polymer PEG4000): Phosphate Form A | Result (solid form obtained) ([5]; solvent THF, polymer PVP-K30): Phosphate Form 1A
